{"source": "patent US20250032430A1", "about": "“USES OF RHODOQUINONE FOR THE TREATMENT OF DISEASE” (Whitehead Institute for Biomedical Research, priority 2021, published 2025)", "key": {"[1]": {"system": "complex 1 and DHODH", "assay": "Proliferation of WT and RquA cells in media without pyruvate or uridine", "format": "cell-based", "settings": "media − pyruvate, − uridine", "from_the_text": "Proliferation of WT and RquA cells in media that forces cells to use maximal complex 1 activity (− pyruvate) and maximal DHODH activity (− uridine). Complex 1 and DHODH are enzymes in the ETC that require an electron carrier (classically UQ) to catalyze their function. […] Rotenone was used as a control and inhibits complex 1 activity. Brequinar was used as a control and inhibits DHODH activity."}, "[2]": {"system": "143B cells", "assay": "14C-palmitate degradation radioactivity assay (fatty acid oxidation)", "format": "cell-based, human", "settings": "WT (UQ-containing) versus RquA (RQ-containing) 143B cells", "from_the_text": "Radioactivity assay to monitor 14C-palmitate degradation in WT (UQ-containing) and RquA (RQ-containing) 143B cells."}, "[3]": {"system": "SDH complex", "assay": "Ex vivo net direction of the SDH complex in mouse tissues", "settings": "ex vivo antimycin treatment of liver, kidney, heart, skeletal muscle", "protocol": "(§1) Ex vivo stable isotope tracing on tissues: Tissues were excised from mice and washed in 1×PBS. Tissues were then cut into small pieces and placed in the appropriate stable isotope tracing media. Stable isotope tracing media contained either ^13C5^15N2-glutamine (Sigma) or 13C4-aspartate (Sigma) dissolved in DMEM, 5% FBS, 1% P/S. For ex vivo tracing experiments performed on the brain, the same media was used without FBS. Tissues were incubated for the designated time at 37° C. in a normal or hypoxia tissue culture incubator. Tissues were removed from the media, washed with PBS, and flash frozen in liquid nitrogen. Samples could be stored at −80° C. until metabolites were isolated.\nIsolation of metabolites from tissues: Tissues were flash frozen and powderized with a mortar and pestle in a liquid nitrogen bath. Approximately 30 mg of tissue powder was transferred into eppendorf tubes and re-suspended in 800 uL ice-cold LC-MS grade 60:40 Methanol:Water (ThermoFisher). Samples were vortexed for 10 minutes at 4° C. […] The top layer was transferred to a new tube, dried down in a speedvac, and subsequently stored at −80° C. until they were analyzed by LC-MS. […] Protein in each sample was quantified using the Pierce BCA Protein Assay Kit (Life Technologies). […]"}, "[4]": {"system": "DHODH", "assay": "Ex vivo DHODH activity in mouse tissues (13C4-aspartate into 13C4-orotate)", "settings": "2 μM antimycin", "protocol": "Because net-reversal of the SDH complex supports DHODH activity in cultured cells when O2 reduction is blocked (FIG. 3), mouse tissues were tested. DHODH activity was measured in tissues that are capable (the liver and kidney) or incapable (the heart and gastrocnemius muscle) of net-reversing the SDH complex when O2 reduction is limited. […] Next, DHODH activity was assessed via ^13C4-aspartate incorporation into ^13C4-orotate, because labelling of the ^13C3-UTP pool was undetectable in most tissues.\nas §1, with “Tissues were removed from the media, washed with PBS, and flash frozen in liquid nitrogen. Samples could be stored at −80° C. until metabolites were isolated.” left out\nIsolation of metabolites from tissues: Tissues were flash frozen and powderized with a mortar and pestle in a liquid nitrogen bath. […] The top layer was transferred to a new tube, dried down in a speedvac, and subsequently stored at −80° C. until they were analyzed by LC-MS. […] Protein in each sample was quantified using the Pierce BCA Protein Assay Kit (Life Technologies). […]"}, "[5]": {"system": "143B cells", "assay": "Cell proliferation", "format": "cell-based, human", "settings": "antimycin, media containing high pyruvate and aspartate; versus wild-type cells", "protocol": "Proliferation: 25,000 cells were seeded in 6-well dishes and counted on day 1 and day 5 on a Beckman Coulter Counter. Doubling times were calculated using the following equation: […]"}, "[6]": {"system": "MT-DNA copy number", "assay": "MT-DNA quantification", "format": "cell-based, human", "settings": "SDHA and SDHB knockout cells", "protocol": "MT-DNA Quantification: Cells were pelleted, washed 1× in PBS, and then lysed in buffer (25 mM NaOH, 0.2 mM EDTA) for 15 minutes at 95° C. Lysis was neutralized with buffer (40 mM Tris-HCl) and centrifuged at 16,000×g for 10 minutes at 4° C. Supernatant containing MT-DNA was quantified on a CFX96 Real-Time System Thermal Cycler (Bio Rad). Primers amplifying the MT-DNA marker D-Loop (Forward Primer-[…] (SEQ ID NO: 5) Reverse Primer—[…]) (SEQ ID NO: 6) and the nuclear DNA marker B-Globin (Forward Primer-[…] (SEQ ID NO: 7) Reverse Primer—[…]) (SEQ ID NO: 8) were used and the relative MT-DNA to nuclear DNA was quantified in each sample [4]."}, "[7]": {"system": "143B cells", "assay": "Ubiquinone and ubiquinol measurement by LC-MS in mitochondria", "format": "cell-based, human", "settings": "antimycin-treated SDHB knockout cells versus antimycin-treated wild-type cells", "protocol": "Ubiquinone and Ubiquinol measurements: Ubiquinone and Ubiquinol were isolated from mitochondria purified by differential centrifugation as described above. Extraction and mass spectrometry protocols were performed with slight modifications to a previously described protocol. Briefly, mitochondria isolated from 25 million cells or approximately 100 mg mouse tissue were resuspended in 500 μL of ethanol and vortexed for 10 minutes at 4° C. Then, 1 mL of hexane was added and the samples were vortexed for an additional 10 minutes at 4° C. Samples were centrifuged at 16,000×g for 10 minutes at 4° C., creating two layers—the top hexane layer and bottom ethanol layer. The top (hexane) fraction was moved into a new tube and dried down. Immediately prior to LC-MS, samples were resuspended in 50 μL of 80:20 ethanol:hexane and loaded into a 4° C. autosampler. 5 μL of samples were injected onto a Luna 3 μm PFP(2) 100 Å, LC Column 100×2 mm. The column oven was held at 25° C. and the autosampler tray was held at 4° C. Buffer A contained water with 0.1% formic acid and Buffer B contained acetonitrile with 0.1% formic acid. […]"}}, "data": [{"substance": "rhodoquinone", "values": [{"measurement": "support of complex 1 and DHODH activities (proliferation)", "setting": "[1]", "result": "can carry electrons in the ETC and support complex 1 and DHODH activities"}, {"measurement": "fatty acid oxidation (14C-palmitate degradation)", "setting": "[2]", "result": "drives lower fatty acid oxidation"}]}, {"substance": "antimycin", "values": [{"measurement": "net-reversal of the SDH complex", "setting": "[3]", "result": "only the liver and kidney maintained net-reversal"}, {"measurement": "levels of 13C4-orotate (DHODH activity)", "setting": "[4]; ex vivo heart and gastrocnemius muscle", "result": "reduced"}, {"measurement": "levels of 13C4-orotate (DHODH activity)", "setting": "[4]; ex vivo liver and kidney", "result": "remained unchanged"}, {"measurement": "proliferation of SDHB-null cells", "setting": "[5]", "result": "less than wild-type cells treated with antimycin"}, {"measurement": "MT-DNA copy number", "setting": "[6]", "result": "did not alter"}, {"measurement": "levels of UQH2 and ratio of UQH2:UQ", "setting": "[7]", "result": "greater"}]}]}
